In US4241077A, “β-Oxo-3-thiophenepropionitrile and β-amino-2-(3)-thiopheneacrylonitriles” (American Cyanamid Company, priority 1979, dated 1980):

Key:
[1] = tested on: adjuvant induced arthritis (Freund's adjuvant) in rats; experiment: Adjuvant induced arthritis in rats (oral, once daily days 0 through 13 post challenge); format: in vivo, Royal Hart, Wistar strain rats
Experimental: Groups of three Royal Hart, Wistar strain rats weighing 200±10 grams each were injected intradermally in the right hind paw with Freund's adjuvant (dried human tubercle bacilli in a mineral oil vehicle) at a dose of 2 mg./kg. of body weight. Test compounds were administered orally in a 1.5% starch vehicle at various doses once daily on days 0 through 13 post challenge. Control rats were treated in a similar manner, but given only starch vehicle. On the 14th and 21st day post challenge the diameter of the injected paw (primary lesion) was measured by micrometer caliper. The volume of inflamed paws were estimated from these measurements and the results are expressed as percent inhibition of swelling as compared to controls. At the same time, the other inflamed sites, such as ears, paws and tail (secondary lesions) were observed and each rat was graded as to degree of inflammation and swelling present. The grading is based on a scale of 0 to 24, where 0 represents a complete absence of induced arthritic nodules and 24 represents the maximum degree of inflammation. The mean grade for each treated group is calculated and the effects of each compound are expressed as percent inhibition of the control grade. Table I below records the results of tests conducted with the compounds of this invention and known anti-inflammatory agents. The compounds of this invention appear to suppress the progression of the arthritis and associated joint deterioration.

[2] = tested on: adjuvant induced experimental polyarthritis; details: result in words; literature; cited from earlier work

With CC(=O)Oc1ccccc1C(=O)O [Aspirin, reference compound] the “Inhibition of Swelling (primary lesion)” value ([1]; oral 50 mg./kg., Day 14) was 23%, the “Inhibition of Swelling (primary lesion)” value ([1]; oral 50 mg./kg., Day 21) was 3% and the “Inhibition of Swelling (primary lesion)” value ([1]; oral 100 mg./kg., Day 14) was 36%. For the same compound, the “Inhibition of Swelling (primary lesion)” value ([1]; oral 100 mg./kg., Day 21) was 13%, the “Inhibition of Swelling (primary lesion)” value ([1]; oral 200 mg./kg., Day 14) was 48% and the “Inhibition of Swelling (primary lesion)” value ([1]; oral 200 mg./kg., Day 21) was 27%. The “Inhibition of Swelling (primary lesion)” value ([1]; oral 400 mg./kg., Day 14) was 73% and the “Inhibition of Swelling (primary lesion)” value ([1]; oral 400 mg./kg., Day 21) was 48%.
For COc1ccc2c(c1)c(CC(=O)O)c(C)n2C(=O)c1ccc(Cl)cc1 [Indomethocin, reference compound], the “arthritic paw swelling; joint and bone deterioration” value [2] is given as “prevent joint and bone deterioration”, the “Inhibition of Swelling (primary lesion)” value ([1]; oral 0.25 mg./kg., Day 14) is given as 30% and the “Inhibition of Swelling (primary lesion)” value ([1]; oral 0.25 mg./kg., Day 21) is given as 4%. The “Inhibition of Swelling (primary lesion)” value ([1]; oral 0.5 mg./kg., Day 14) was 40%, the “Inhibition of Swelling (primary lesion)” value ([1]; oral 0.5 mg./kg., Day 21) was 20% and the “Inhibition of Swelling (primary lesion)” value ([1]; oral 1 mg./kg., Day 14) was 46%. The “Inhibition of Swelling (primary lesion)” value ([1]; oral 1 mg./kg., Day 21) was 19%, the “Inhibition of Swelling (primary lesion)” value ([1]; oral 2 mg./kg., Day 14) was 51% and the “Inhibition of Swelling (primary lesion)” value ([1]; oral 2 mg./kg., Day 21) was 24%.
With CCCCC1C(=O)N(c2ccccc2)N(c2ccccc2)C1=O [Phenylbutazone, reference compound] the “Inhibition of Swelling (primary lesion)” value ([1]; oral 18.8 mg./kg., Day 14) was 31%, the “Inhibition of Swelling (primary lesion)” value ([1]; oral 18.8 mg./kg., Day 21) was 7% and the “Inhibition of Swelling (primary lesion)” value ([1]; oral 37.5 mg./kg., Day 14) was 56%. The “Inhibition of Swelling (primary lesion)” value ([1]; oral 37.5 mg./kg., Day 21) was 14%, the “Inhibition of Swelling (primary lesion)” value ([1]; oral 75 mg./kg., Day 14) was 62% and the “Inhibition of Swelling (primary lesion)” value ([1]; oral 75 mg./kg., Day 21) was 28%. The “Inhibition of Swelling (primary lesion)” value ([1]; oral 150 mg./kg., Day 14) was 75% and the “Inhibition of Swelling (primary lesion)” value ([1]; oral 150 mg./kg., Day 21) was 44%.
With N#CC=C(N)c1cccs1 [β-Amino-2-thiopheneacrylonitrile, β-amino-2-thiopheneacrylonitrile] the “Dead/Treated at 21 Days” value ([1]; oral 50 mg./kg. of body weight) was 1/33, the “% Inhibition of Control Grade (secondary lesion)” value (shortened to “% Inhibition of Control Grade”) ([1]; oral 50 mg./kg., Day 14) was 21% and the “Inhibition of Swelling (primary lesion)” value ([1]; oral 50 mg./kg., Day 14) was 44%. For the same compound, the “Mean Weight Gain” value ([1]; oral 50 mg./kg., Day 14) was 54 grams, the “% Inhibition of Control Grade” value ([1]; oral 50 mg./kg., Day 21) was 6% and the “Inhibition of Swelling (primary lesion)” value ([1]; oral 50 mg./kg., Day 21) was 23%. For the same compound, the “Mean Weight Gain” value ([1]; oral 50 mg./kg., Day 21) was 50 grams, the “Dead/Treated at 21 Days” value ([1]; oral 100 mg./kg. of body weight) was 2/18 and the “% Inhibition of Control Grade” value ([1]; oral 100 mg./kg., Day 14) was 25%. The “Inhibition of Swelling (primary lesion)” value ([1]; oral 100 mg./kg., Day 14) was 49%, the “Mean Weight Gain” value ([1]; oral 100 mg./kg., Day 14) was 45 grams and the “% Inhibition of Control Grade” value ([1]; oral 100 mg./kg., Day 21) was 16%. For the same compound, the “Inhibition of Swelling (primary lesion)” value ([1]; oral 100 mg./kg., Day 21) was 27%, the “Mean Weight Gain” value ([1]; oral 100 mg./kg., Day 21) was 51 grams and the “Dead/Treated at 21 Days” value ([1]; oral 200 mg./kg. of body weight) was 6/18. The “% Inhibition of Control Grade” value ([1]; oral 200 mg./kg., Day 14) was 80%, the “Inhibition of Swelling (primary lesion)” value ([1]; oral 200 mg./kg., Day 14) was 70% and the “Mean Weight Gain” value ([1]; oral 200 mg./kg., Day 14) was 36 grams. The “% Inhibition of Control Grade” value ([1]; oral 200 mg./kg., Day 21) was 57%, the “Inhibition of Swelling (primary lesion)” value ([1]; oral 200 mg./kg., Day 21) was 61% and the “Mean Weight Gain” value ([1]; oral 200 mg./kg., Day 21) was 53 grams.
With N#CC=C(N)c1ccsc1 [β-Amino-3-thiopheneacrylonitrile, β-amino-3-thiopheneacrylonitrile] the “Dead/Treated at 21 Days” value ([1]; oral 50 mg./kg. of body weight) was 2/18, the “Inhibition of Swelling (primary lesion)” value ([1]; oral 50 mg./kg., Day 14) was 52% and the “Mean Weight Gain” value ([1]; oral 50 mg./kg., Day 14) was 47 grams. The “Inhibition of Swelling (primary lesion)” value ([1]; oral 50 mg./kg., Day 21) was 41% and the “Mean Weight Gain” value ([1]; oral 50 mg./kg., Day 21) was 54 grams.
With N#CCC(=O)c1ccsc1 [β-Oxo-3-thiophenepropionitrile, β-oxo-3-thiophenepropionitrile] the “Dead/Treated at 21 Days” value ([1]; oral 50 mg./kg. of body weight) was 1/18, the “Inhibition of Swelling (primary lesion)” value ([1]; oral 50 mg./kg., Day 14) was 61% and the “Mean Weight Gain” value ([1]; oral 50 mg./kg., Day 14) was 53 grams. For the same compound, the “Inhibition of Swelling (primary lesion)” value ([1]; oral 50 mg./kg., Day 21) was 26% and the “Mean Weight Gain” value ([1]; oral 50 mg./kg., Day 21) was 50 grams.
